Measured values taken from patent US4451485A, “Treatment of cardio-vascular diseases with 3-(2,2,2-trimethylhydrazinium) propionate dihydrate” (Institu Organicheskogo Sinteza Akademii Nauk Latviiskoi SSR, priority 1981, dated 1984).

What was measured:
[1] = Coronary circulation and hemodynamics in narcotized cats; assay type: in vivo
Method: In acute experiments on narcotized cats with a mass of from 2.9 to 4.1 kg under artificial respiration, arterial pressure was recorded in the common carotide artery, central venous pressure in the right auricle, volume rate of blood flow in the ascending aortic arch and volume rate of the coronary blood flow. At the same time, there was recorded the content of oxyhemoglobin in venous coronary blood.

[2] = Embryotoxic and teratogenic effects in rats; assay type: in vivo, white rats; conditions: up to 10,000 mg/kg perorally, any day of pregnancy

SMILES: C[N+](C)(C)NCCC(=O)[O-] [3-(2,2,2-trimethylhydrazinium)propionate]
- Change of arterial pressure ([1]; 2 mg/kg): 0 + -5%
- Change of central venous pressure ([1]; 2 mg/kg): 0%
- Change of heart output ([1]; 2 mg/kg): 0 + +5%
- Increase duration ([1]; 2 mg/kg): 20 min
- Volume rate, percent of increase ([1]; 2 mg/kg): 15%
- Change of central venous pressure ([1]; 10 mg/kg): -5%
- Change of heart output ([1]; 10 mg/kg): +5 - 10%
- Increase duration ([1]; 10 mg/kg): 45 min
- Volume rate, percent of increase ([1]; 10 mg/kg): 40%
- Change of arterial pressure ([1]; 25 mg/kg): -8 - +5%
- Change of central venous pressure ([1]; 25 mg/kg): -10%
- Change of heart output ([1]; 25 mg/kg): +10 - 20%
- Increase duration ([1]; 25 mg/kg): 70 min
- Volume rate, percent of increase ([1]; 25 mg/kg): 55%
- Therapeutical index higher than carbocromene ([1]; 314 vs. 130): approximately 3 times
- Saturation of the venous blood of coronary sinus with oxygen ([1]; in vivo): lastingly increase saturation of the venous blood of coronary sinus with oxygen
- Therapeutical index ([1]; in vivo): 314
- Embryotoxic or teratogenic effects [2]: no embryotoxic or teratogenic effects
